Values after ≈ are worked out from the molar mass of the structure shown. “Also recorded” adds a separate entry of the source.
Tests used:
S. aureus = experiment: Antibiotic activity, MIC; format: cell-based; settings: Staphylococcus aureus
E. Coli = experiment: Antibiotic activity, MIC; format: cell-based; settings: Escherichia coli
P. = experiment: Antibiotic activity, MIC; format: cell-based; settings: read-out: MIC Values
C. albicans = experiment: Antibiotic activity, MIC; format: cell-based; settings: Candida albicans
chick embryo = experiment: Chick embryo diss. assay (Table II); format: in vivo
Protocol: (§1) Using the chick embryo vitelline capillaries assay, compounds were tested for their ability to induce capillary regression. Each compound was applied in 0.1 ml of 15% Ficol 400 and PBS onto the embryo, and vascular regression was assessed after 60 minutes.

HM = HM MTT assay (Table II); format: cell-based; settings: read-out: Minimum Effective Concentration, HM MTT assay
[1] = tested on: human microvascular cells; experiment: Inhibition of endothelial cell cord formation in vitro; format: cell-based; settings: for minimal effective concentration: Homo sapiens, Endothelial cell, Table II, read-out: Minimum Effective Concentration, Cord Formation
From the text: Endothelial cells have the capacity in vitro to form tubular aggregates resembling capillaries in various early stages of formation. This conversion occurs under relatively specific conditions, in which essential growth factors along with an effective substratum are provided. It has been shown that both the interaction of growth factors with the endothelial cell and its attachment to a substratum activate the NHE. The activation of this exchanger is believed to be required for subsequent morphologic transformation of the endothelial cell into a multicellular tubular structure.
To assess the effect of compounds on the cord-like structures formed by human microvascular cells when plated in the presence of VEGF (Vascular Endothelial Growth Factor) and basic fibroblast growth factor on a collagen matrix, a standard cord formation assay was used.

[2] = tested on: vitelline capillaries of 3- to 5-day chick embryo; experiment: Chick embryo vitelline capillary regression assay; format: in vivo; set-up: key to vascular reactivity: +: Vascular reactivity; 0: No vascular reactivity; +/-: Equivocal reactivity; settings: for vascular reactivity: 60 minutes
Protocol: as §1
The 3-day chick embryo consists of an embryonic disc from which numerous vessels emerge and return, forming a "figure 8"-shaped structure--the embryo in the center with vascular loops extending outward over both poles. […] Following a lag period of around 15 minutes, the constriction of continuity between capillary and secondary vessels, generally on the "venous" side, was observed. Continued pulsatile blood flow progressed, resulting in a "swelling" of the blind tube, followed by a pinching off of the remaining connection and formation of an enclosed vascular sac resembling a "blood island." This process progressed until only the largest vessels remained intact.

Xenopus tadpoles = experiment: Tadpole assay

## CC(C)CCC[C@@H](C)[C@H]1CC[C@H]2[C@@H]3CC[C@H]4C[C@H](NCCCCN)CC[C@]4(C)[C@H]3CC[C@]12C
S. aureus
  MIC: 4 µg/mL (≈ 8.72 µM)
E. Coli
  MIC: > 256 µg/mL
P.
  MIC: > 256 µg/mL
C. albicans
  MIC: 64 µg/mL (≈ 139 µM)

## CC(C)CCC[C@@H](C)[C@H]1CC[C@H]2[C@@H]3CC[C@H]4C[C@@H](NCCCCN)CC[C@]4(C)[C@H]3CC[C@]12C
S. aureus
  MIC: 16 µg/mL (≈ 34.9 µM)
E. Coli
  MIC: > 256 µg/mL
P.
  MIC: > 256 µg/mL
C. albicans
  MIC: > 256 µg/mL

## CC(C)C(O)CC[C@@H](C)[C@H]1CC[C@H]2[C@@H]3[C@H](O)C[C@H]4C[C@@H](NCCCNCCCCN(C)C)CC[C@]4(C)[C@H]3CC[C@]12C (stereo partly shown)
P.
  MIC: 129 µg/mL (≈ 224 µM)

## CC(CCC(=O)O)[C@H]1CCC2C3CC[C@H]4C[C@@H](NCCCNCCCCN)CC[C@]4(C)C3CC[C@@]21C (stereo partly shown)
Chick embryo
  Minimum Effective Concentration, chick embryo diss. assay: 0.001 µg
HM
  minimal effective concentration: 13.8 µg/mL

## CC(CCC(=O)O)[C@H]1CCC2C3C(CC[C@@]21C)[C@@]1(C)CC[C@H](NCCCNCCCCN)C[C@@H]1C[C@H]3O (stereo partly shown)
Chick embryo
  Minimum Effective Concentration, chick embryo diss. assay: > 10 µg

## CC(C)CCCC(C)[C@H]1CCC2C3CC[C@H]4C[C@H](NCCCN5CCCCN=C5N)CC[C@]4(C)C3CC[C@@]21C (stereo partly shown)
Chick embryo
  Minimum Effective Concentration, chick embryo diss. assay: > 10 µg

## COC(=O)CCC(C)[C@H]1CCC2C3C(CC[C@@]21C)[C@@]1(C)CCC(NCCCNCCCCNCCCN)C[C@@H]1C[C@H]3O (stereo partly shown)
Chick embryo
  Minimum Effective Concentration, chick embryo diss. assay: > 10 µg

## CC(CCC(=O)O)[C@H]1CCC2C3C(CC[C@@]21C)[C@@]1(C)CC[C@H](NCCCNCCCCNCCCN)C[C@H]1C[C@H]3O (stereo partly shown)
[1]
  minimal effective concentration: > 10 µg/mL

## CC(CCC(CO)(OS(=O)(=O)O)C(C)C)[C@H]1CCC2C3C(CC[C@@]21C)[C@@]1(C)CC[C@H](NCCCNCCCCN)C[C@@H]1C[C@H]3O (stereo partly shown)
Chick embryo
  Minimum Effective Concentration, chick embryo diss. assay: > 1 µg

## CC(CCC(=O)O)[C@H]1CCC2C3C(CC[C@@]21C)[C@@]1(C)CC[C@@H](NCCCNCCCCN)CC1C[C@H]3O (single isomer, unassigned)
Chick embryo
  Minimum Effective Concentration, chick embryo diss. assay: 0.01 µg

## CC(COS(=O)(=O)O)C(=O)CC[C@@H](C)[C@H]1CC[C@H]2[C@@H]3[C@H](O)C[C@H]4C[C@@H](NCCCNCCCCN)CC[C@]4(C)[C@H]3CC[C@]12C (single isomer, unassigned) [Compound 1360]
[2]; within 20 minutes
  effect on chick embryo blood: the blood circulating through the embryonic vessels exhibited a brighter red color
Xenopus tadpoles; 10 μg/ml, stage 59-60 Xenopus
  observed response in tadpole: Swelling and lysis of certain erythrocytes occurred; also recorded: Subsequent tissue breakdown occurred in areas of tail surrounding these nuclear plugs; also recorded: extensive vasocclusion occurred within 60 minutes throughout the tail

## C[C@H](CCC(=O)O)[C@H]1CC[C@H]2[C@@H]3[C@H](O)C[C@H]4C[C@@H](NCCCNCCCCN)CC[C@]4(C)[C@H]3CC[C@]12C [Compound 381]
[2]; 1 μg applied
  vascular reactivity: 0

## COC(=O)CC[C@@H](C)[C@H]1CC[C@H]2[C@@H]3[C@H](O)C[C@@H]4C[C@@H](NCCN)CC[C@]4(C)[C@H]3CC[C@]12C [Compound 409]
[2]; 1 μg applied
  vascular reactivity: 0
Xenopus tadpoles; Xenopus tadpole assay
  functional similarity in tadpole assay: functionally similar to compound 1437

## COC(=O)CC[C@@H](C)[C@H]1CC[C@H]2[C@@H]3[C@H](O)C[C@@H]4C[C@@H](NCCCNCCCCNCCCN)CC[C@]4(C)[C@H]3CC[C@]12C [Compound 411]
[2]; 0.1 μg applied
  vascular reactivity: 0

## C[C@H](CCC(=O)O)[C@H]1CC[C@H]2[C@@H]3[C@H](O)C[C@@H]4C[C@H](NCCCNCCCCNCCCN)CC[C@]4(C)[C@H]3CC[C@]12C [Compound 412]
[1]; 10.0 μg/ml
  endothelial cord formation: +
Xenopus tadpoles; Xenopus tadpole assay
  functional similarity in tadpole assay: pharmacologic activity similar to that seen for FX 3

## C[C@H](CCC(=O)O)[C@H]1CC[C@H]2[C@@H]3[C@H](O)C[C@@H]4C[C@@H](NCCCNCCCCNCCCN)CC[C@]4(C)[C@H]3CC[C@]12C [Compound 413]
[1]; 0.1 μg/ml
  endothelial cord formation: -
[2]; 1 μg applied
  vascular reactivity: 0
Xenopus tadpoles; Xenopus tadpole assay
  functional similarity in tadpole assay: effects like those produced by compound 1436

## C[C@H](CCC(=O)O)[C@H]1CC[C@H]2[C@@H]3[C@H](O)C[C@@H]4C[C@H](NCCN)CC[C@]4(C)[C@H]3CC[C@]12C [Compound 414]
[2]; 1 μg applied
  vascular reactivity: 0
Xenopus tadpoles; Xenopus tadpole assay
  functional similarity in tadpole assay: pharmacologic activity similar to Fraction 1
  potency in tadpole assay relative to Fraction 1: potencies comparable to that of Fraction 1

## C[C@H](CCC(=O)O)[C@H]1CC[C@H]2[C@@H]3[C@H](O)C[C@@H]4C[C@@H](NCCN)CC[C@]4(C)[C@H]3CC[C@]12C [Compound 415]
[1]; 10.0 μg/ml
  endothelial cord formation: +/T
[2]; Table 5
  activity in vitelline capillary regression assay: especially active

## CC(C)CCCC(C)[C@H]1CCC2C3C(CC[C@@]21C)[C@@]1(C)CC[C@@H](NCCCNCCCCN)C[C@@H]1C[C@H]3O (stereo partly shown) [drawing 86]
Chick embryo
  Minimum Effective Concentration, chick embryo diss. assay: > 10 µg
HM
  minimal effective concentration: 4 µg/mL

## CC(C)CCCC(C)[C@H]1CCC2C3C(CC[C@@]21C)[C@@]1(C)CC[C@H](NCCCNCCCCN)C[C@@H]1C[C@H]3O (stereo partly shown) [drawing 87]
Chick embryo
  Minimum Effective Concentration, chick embryo diss. assay: 1.10 µg

## CC(C)CCCC(C)[C@H]1CCC2C3C(CC[C@@]21C)[C@@]1(C)CC[C@H](N)C[C@@H]1C[C@H]3O (stereo partly shown) [drawing 88]
Chick embryo
  Minimum Effective Concentration, chick embryo diss. assay: 1 µg

## COC(=O)CCC(C)[C@H]1CCC2C3C(CC[C@@]21C)[C@@]1(C)CC[C@H](NCCN)C[C@H]1C[C@H]3O (stereo partly shown) [drawing 92]
Chick embryo
  Minimum Effective Concentration, chick embryo diss. assay: > 1 µg

## COC(=O)CCC(C)[C@H]1CCC2C3C(CC[C@@]21C)[C@@]1(C)CC[C@@H](NCCN)C[C@H]1C[C@H]3O (stereo partly shown) [drawing 93]
[1]
  minimal effective concentration: 10 µg/mL
Chick embryo
  Minimum Effective Concentration, chick embryo diss. assay: 0.01 µg
HM
  minimal effective concentration: 2.6 µg/mL

## COC(=O)CCC(C)[C@H]1CCC2C3CC[C@H]4C[C@@H](NCCCNCCCCNCCCN)CC[C@]4(C)C3CC[C@@]21C (stereo partly shown) [drawing 99]
HM
  minimal effective concentration: 5 µg/mL

## COC(=O)CCC(C)[C@H]1CCC2C3C[C@@H](O)[C@H]4C[C@@H](NCCCNCCCCNCCCN)CC[C@]4(C)C3CC[C@@]21C (stereo partly shown) [drawing 101]
Chick embryo
  Minimum Effective Concentration, chick embryo diss. assay: 1 µg

## COC(=O)CCC(C)[C@H]1CCC2C3C[C@@H](O)[C@H]4C[C@H](NCCN)CC[C@]4(C)C3CC[C@@]21C (stereo partly shown) [drawing 103]
Chick embryo
  Minimum Effective Concentration, chick embryo diss. assay: > 1 µg

## CC(CCC(=O)O)[C@H]1CCC2C3C[C@@H](O)[C@H]4C[C@@H](NCCN)CC[C@]4(C)C3CC[C@@]21C (stereo partly shown) [drawing 105]
Chick embryo
  Minimum Effective Concentration, chick embryo diss. assay: 1 µg

## COC(=O)CCC(C)[C@H]1CCC2C3CC[C@@H]4C[C@H](NCCCNCCCCNCCCN)CC[C@]4(C)C3C[C@H](O)[C@@]21C (stereo partly shown) [drawing 106]
Chick embryo
  Minimum Effective Concentration, chick embryo diss. assay: 1 µg

## CC(CCC(=O)O)[C@H]1CCC2C3CC[C@@H]4C[C@H](NCCCNCCCCNCCCN)CC[C@]4(C)C3C[C@H](O)[C@@]21C (stereo partly shown) [drawing 107]
Chick embryo
  Minimum Effective Concentration, chick embryo diss. assay: > 1 µg

## COC(=O)CCC(C)[C@H]1CCC2C3C(CC[C@@]21C)[C@@]1(C)CC[C@H](NCCCNCCCCNCCCN)C[C@H]1C[C@H]3O (stereo partly shown) [drawing 109]
[1]
  minimal effective concentration: 10 µg/mL
Chick embryo
  Minimum Effective Concentration, chick embryo diss. assay: > 1 µg

## CC(CCC(=O)O)[C@H]1CCC2C3C(CC[C@@]21C)[C@@]1(C)CC[C@@H](NCCCNCCCCNCCCN)C[C@H]1C[C@H]3O (stereo partly shown) [drawing 110]
[1]
  minimal effective concentration: > 10 µg/mL
HM
  minimal effective concentration: 18.1 µg/mL

## CC(CCC(=O)O)[C@H]1CCC2C3C(CC[C@@]21C)[C@@]1(C)CC[C@H](NCCN)C[C@H]1C[C@H]3O (stereo partly shown) [drawing 113]
[1]
  minimal effective concentration: > 10 µg/mL

## COC(=O)CCC(C)[C@H]1CCC2C3CC[C@@H]4C[C@H](NCCN)CC[C@]4(C)C3C[C@H](O)[C@@]21C (stereo partly shown) [drawing 114]
HM
  minimal effective concentration: 2.4 µg/mL

## CC(CCC(=O)O)[C@H]1CCC2C3CC[C@@H]4C[C@H](NCCN)CC[C@]4(C)C3C[C@H](O)[C@@]21C (stereo partly shown) [drawing 115]
Chick embryo
  Minimum Effective Concentration, chick embryo diss. assay: > 1 µg

## CC(C)[C@@H](CC[C@@H](C)[C@H]1CC[C@H]2[C@@H]3[C@H](O)C[C@H]4C[C@@H](NCCCNCCCCN)CC[C@]4(C)[C@H]3CC[C@]12C)OS(=O)(=O)O [drawing 116]
HM
  minimal effective concentration: 7.8 µg/mL

Source: patent publication US5792635A, “Method of inhibiting the sodium/proton exchanger NHE3 and method of inhibiting growth by administering squalamine” (priority 1995, dated 1998)
